For assay [1], the target named is 5-hydroxytryptamine receptor 1A (Homo sapiens, UniProt P08908). In kind it is functional.
Assay [2] concerns the target T1, Protein RecA (Mycobacterium tuberculosis, UniProt P9WHJ3).
T1 sequence (P9WHJ3 whole entry): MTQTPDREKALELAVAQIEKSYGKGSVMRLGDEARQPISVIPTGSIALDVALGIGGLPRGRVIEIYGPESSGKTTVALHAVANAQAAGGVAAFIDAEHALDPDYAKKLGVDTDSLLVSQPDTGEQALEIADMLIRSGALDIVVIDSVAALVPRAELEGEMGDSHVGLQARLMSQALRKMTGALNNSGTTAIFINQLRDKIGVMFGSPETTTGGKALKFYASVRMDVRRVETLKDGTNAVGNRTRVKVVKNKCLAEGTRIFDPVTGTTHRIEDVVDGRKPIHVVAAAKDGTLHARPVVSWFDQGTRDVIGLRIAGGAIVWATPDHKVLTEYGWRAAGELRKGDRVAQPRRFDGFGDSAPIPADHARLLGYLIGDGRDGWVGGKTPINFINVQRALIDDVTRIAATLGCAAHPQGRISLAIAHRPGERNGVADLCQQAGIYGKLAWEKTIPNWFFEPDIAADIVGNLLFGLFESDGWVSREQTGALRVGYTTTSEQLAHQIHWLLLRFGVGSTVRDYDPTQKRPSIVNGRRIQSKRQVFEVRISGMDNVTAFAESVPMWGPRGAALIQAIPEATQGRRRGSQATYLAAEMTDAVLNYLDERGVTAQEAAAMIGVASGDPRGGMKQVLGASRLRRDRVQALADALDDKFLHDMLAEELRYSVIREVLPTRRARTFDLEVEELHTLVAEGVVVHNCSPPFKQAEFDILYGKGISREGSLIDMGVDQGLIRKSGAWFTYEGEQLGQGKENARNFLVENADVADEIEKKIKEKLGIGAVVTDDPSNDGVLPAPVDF
As to the kind of experiment: Fluorescence Cell-Free Homogeneous Dose Retest to Identify Inhibitors of RecA-Intein Splicing Activity. [Related pubchem assays (depositor defined):AID2097, AID2223, AID489010, AID492950]. The class given is functional.

Assay [3] has as its target Prothrombin (Homo sapiens, UniProt P00734). Kind of assay: Thrombin 1536 HTS Dose Response Confirmation. [Related pubchem assays: 1046 (Thrombin 1536 HTS; hits were confirmed in this assay)]. The class given is functional.
The target of assay [4] is T2, Replicative DNA helicase DnaB (Mycobacterium tuberculosis, UniProt P9WMR3).
T2 sequence (P9WMR3 whole entry): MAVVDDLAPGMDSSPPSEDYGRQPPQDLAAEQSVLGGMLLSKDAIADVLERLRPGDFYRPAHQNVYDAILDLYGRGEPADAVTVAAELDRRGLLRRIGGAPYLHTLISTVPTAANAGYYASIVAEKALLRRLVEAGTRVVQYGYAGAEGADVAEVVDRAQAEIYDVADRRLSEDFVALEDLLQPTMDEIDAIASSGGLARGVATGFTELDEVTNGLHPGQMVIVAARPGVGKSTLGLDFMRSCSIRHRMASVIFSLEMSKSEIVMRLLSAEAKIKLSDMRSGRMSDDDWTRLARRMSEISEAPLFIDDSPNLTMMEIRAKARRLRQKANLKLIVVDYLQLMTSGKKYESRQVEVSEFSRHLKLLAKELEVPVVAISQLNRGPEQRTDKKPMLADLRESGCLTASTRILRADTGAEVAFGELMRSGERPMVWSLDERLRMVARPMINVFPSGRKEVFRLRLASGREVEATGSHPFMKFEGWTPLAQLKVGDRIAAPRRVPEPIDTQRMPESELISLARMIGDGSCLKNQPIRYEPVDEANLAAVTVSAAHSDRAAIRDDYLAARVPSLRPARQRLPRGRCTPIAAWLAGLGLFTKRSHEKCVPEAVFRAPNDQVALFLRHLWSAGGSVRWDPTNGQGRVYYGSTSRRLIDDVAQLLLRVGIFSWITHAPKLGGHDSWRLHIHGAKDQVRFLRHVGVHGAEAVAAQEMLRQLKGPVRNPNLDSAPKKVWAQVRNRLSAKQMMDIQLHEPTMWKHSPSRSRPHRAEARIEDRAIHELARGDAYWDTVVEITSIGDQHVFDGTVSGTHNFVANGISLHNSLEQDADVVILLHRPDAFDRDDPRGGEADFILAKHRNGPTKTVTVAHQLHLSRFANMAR
As to the kind of experiment: DnaB intein splicing inhibitors, dose response, biochemical, cell-free fluorescence (AID 449749). The class given is functional.

Assay [5] deals with Cytochrome P450 2C19 (Homo sapiens, UniProt P33261). As to the kind of experiment: Cytochrome panel assay with activity outcomes. Panel member name: p450-cyp2c19 Compounds with AC50 equal or less than 10 uM are considered active. To be noted: read-out: AC50. The class given is functional.
Assay [6] addresses Cytochrome P450 2C9 (Homo sapiens, UniProt P11712).
The target of assay [7] is Melanin-concentrating hormone receptor 1 (Homo sapiens, UniProt Q99705). As to the kind of experiment: Fluorescence-based counterscreen for antagonists of the G-protein coupled receptor 7 (GPR7): cell-based high throughput dose response assay to identify antagonists of the melanin-concentrating hormone receptor 1 (MCHR1). In kind it is functional. On the technique in general: The purpose of a counterscreen is to sort out artefacts and off-target activity.

For assay [8], the target named is T3, Neuropeptides B/W receptor type 1 (Homo sapiens, UniProt P48145).
T3 sequence (P48145 whole entry): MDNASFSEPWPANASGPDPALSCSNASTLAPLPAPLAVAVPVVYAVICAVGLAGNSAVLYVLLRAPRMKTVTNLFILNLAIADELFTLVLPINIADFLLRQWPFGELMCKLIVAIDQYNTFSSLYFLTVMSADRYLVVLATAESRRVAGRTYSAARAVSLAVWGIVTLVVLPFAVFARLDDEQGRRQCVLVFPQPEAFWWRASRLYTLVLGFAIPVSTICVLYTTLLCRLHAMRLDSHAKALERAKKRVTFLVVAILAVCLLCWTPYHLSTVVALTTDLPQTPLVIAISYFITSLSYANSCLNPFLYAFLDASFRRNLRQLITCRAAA
As to the kind of experiment: Fluorescence-based dose response cell-based high throughput screening assay to identify antagonists of the G-protein coupled receptor 7 (GPR7). [Related pubchem assays: 1952 (Screening assay (GPR7 antagonists).), 1880 (Summary AID.)]. The class given is functional.

For assay [9], the target named is Protein-tyrosine kinase 2-beta (Homo sapiens, UniProt Q14289).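 Also: potency of inhibitors of PYK2 kinase phosphorylation of poly-GT substrate.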
Assay [10] addresses T4, Bcl-2-related protein A1 (Mus musculus, UniProt Q07440).
T4 sequence (Q07440 whole entry): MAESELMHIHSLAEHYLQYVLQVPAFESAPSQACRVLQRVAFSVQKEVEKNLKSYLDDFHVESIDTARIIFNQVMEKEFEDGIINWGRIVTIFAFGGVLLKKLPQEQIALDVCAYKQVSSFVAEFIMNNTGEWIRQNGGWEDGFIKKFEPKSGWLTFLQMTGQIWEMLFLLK
Kind of assay: small-molecule antagonists of Bfl-1/BH3 interaction – biochemical, TR-FRET, mouse Bfl-1, confirmation (AID 621). (TR-FRET usually uses a lanthanide donor and a delayed reading to cut background.)

Assay [11] deals with T4, Bcl-2-related protein A1. As to the kind of experiment: displacement of Bid BH3 peptide from Bfl-1 – biochemical, fluorescence polarization, FITC-Bid, mouse, primary screen (AID 432). Background: Fluorescence polarisation rises when a labelled molecule tumbles more slowly, as on binding a larger partner.
In assay [12] the target is T4, Bcl-2-related protein A1. As to the kind of experiment: Bfl-1 binding inhibitors, SAR follow-up, biochemical, fluorescence polarization (AID 1070).
Assay [13] addresses Sphingosine 1-phosphate receptor 2 (Homo sapiens, UniProt O95136). As to the kind of experiment: Dose Response Cell Based Assay for Antagonists of the S1P2 Receptor. [Related pubchem assays: 856, 736 ]. In kind it is functional.

One may read the EC50 as the midpoint of the concentration-response curve. Broadly, the IC50 is the concentration at which inhibition is half-maximal. As a reminder, the AC50 is the concentration giving half of the maximal activity seen.

Activity calls are given as the source filed them. Where only a bound is given, the exact number is not on record here.

Sequence of Cytochrome P450 2C9 (P11712 whole entry): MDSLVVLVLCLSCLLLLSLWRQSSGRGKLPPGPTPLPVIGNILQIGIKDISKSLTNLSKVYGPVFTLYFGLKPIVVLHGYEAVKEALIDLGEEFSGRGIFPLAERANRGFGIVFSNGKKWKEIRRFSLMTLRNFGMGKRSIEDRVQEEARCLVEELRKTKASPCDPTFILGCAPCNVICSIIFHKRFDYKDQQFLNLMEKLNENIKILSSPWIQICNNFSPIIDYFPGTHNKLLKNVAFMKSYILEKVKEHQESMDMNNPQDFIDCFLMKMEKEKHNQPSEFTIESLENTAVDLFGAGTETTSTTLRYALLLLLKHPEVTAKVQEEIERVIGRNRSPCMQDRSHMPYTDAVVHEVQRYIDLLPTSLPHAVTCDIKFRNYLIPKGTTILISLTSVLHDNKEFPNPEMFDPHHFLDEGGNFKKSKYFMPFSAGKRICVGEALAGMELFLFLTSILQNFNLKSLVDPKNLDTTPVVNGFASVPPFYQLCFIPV
Sequence of Cytochrome P450 2C19 (P33261 whole entry): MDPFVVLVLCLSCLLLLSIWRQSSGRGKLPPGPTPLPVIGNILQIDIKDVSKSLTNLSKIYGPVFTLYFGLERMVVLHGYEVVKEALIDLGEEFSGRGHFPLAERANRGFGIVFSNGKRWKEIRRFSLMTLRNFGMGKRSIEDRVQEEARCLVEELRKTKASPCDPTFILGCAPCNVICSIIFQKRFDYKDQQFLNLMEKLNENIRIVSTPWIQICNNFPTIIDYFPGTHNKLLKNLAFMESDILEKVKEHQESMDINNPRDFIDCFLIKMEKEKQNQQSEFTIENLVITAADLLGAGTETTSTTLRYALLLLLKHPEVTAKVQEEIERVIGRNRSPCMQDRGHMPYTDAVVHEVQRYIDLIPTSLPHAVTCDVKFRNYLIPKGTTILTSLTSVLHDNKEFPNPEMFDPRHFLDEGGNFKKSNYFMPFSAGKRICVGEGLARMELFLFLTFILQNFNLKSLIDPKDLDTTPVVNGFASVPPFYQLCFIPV
Sequence of 5-hydroxytryptamine receptor 1A (P08908 whole entry): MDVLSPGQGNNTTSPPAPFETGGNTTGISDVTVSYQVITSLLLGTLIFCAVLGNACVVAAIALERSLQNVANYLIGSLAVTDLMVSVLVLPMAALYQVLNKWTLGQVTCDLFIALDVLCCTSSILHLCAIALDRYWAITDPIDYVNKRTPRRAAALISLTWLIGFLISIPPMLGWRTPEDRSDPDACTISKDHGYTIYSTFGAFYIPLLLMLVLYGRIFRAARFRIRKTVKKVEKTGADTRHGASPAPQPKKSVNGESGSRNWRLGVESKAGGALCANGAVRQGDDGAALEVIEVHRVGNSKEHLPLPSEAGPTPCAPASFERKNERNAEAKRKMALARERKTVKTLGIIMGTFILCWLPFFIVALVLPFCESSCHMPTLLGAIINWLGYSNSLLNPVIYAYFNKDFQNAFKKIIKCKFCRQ
Sequence of Protein-tyrosine kinase 2-beta (Q14289 whole entry): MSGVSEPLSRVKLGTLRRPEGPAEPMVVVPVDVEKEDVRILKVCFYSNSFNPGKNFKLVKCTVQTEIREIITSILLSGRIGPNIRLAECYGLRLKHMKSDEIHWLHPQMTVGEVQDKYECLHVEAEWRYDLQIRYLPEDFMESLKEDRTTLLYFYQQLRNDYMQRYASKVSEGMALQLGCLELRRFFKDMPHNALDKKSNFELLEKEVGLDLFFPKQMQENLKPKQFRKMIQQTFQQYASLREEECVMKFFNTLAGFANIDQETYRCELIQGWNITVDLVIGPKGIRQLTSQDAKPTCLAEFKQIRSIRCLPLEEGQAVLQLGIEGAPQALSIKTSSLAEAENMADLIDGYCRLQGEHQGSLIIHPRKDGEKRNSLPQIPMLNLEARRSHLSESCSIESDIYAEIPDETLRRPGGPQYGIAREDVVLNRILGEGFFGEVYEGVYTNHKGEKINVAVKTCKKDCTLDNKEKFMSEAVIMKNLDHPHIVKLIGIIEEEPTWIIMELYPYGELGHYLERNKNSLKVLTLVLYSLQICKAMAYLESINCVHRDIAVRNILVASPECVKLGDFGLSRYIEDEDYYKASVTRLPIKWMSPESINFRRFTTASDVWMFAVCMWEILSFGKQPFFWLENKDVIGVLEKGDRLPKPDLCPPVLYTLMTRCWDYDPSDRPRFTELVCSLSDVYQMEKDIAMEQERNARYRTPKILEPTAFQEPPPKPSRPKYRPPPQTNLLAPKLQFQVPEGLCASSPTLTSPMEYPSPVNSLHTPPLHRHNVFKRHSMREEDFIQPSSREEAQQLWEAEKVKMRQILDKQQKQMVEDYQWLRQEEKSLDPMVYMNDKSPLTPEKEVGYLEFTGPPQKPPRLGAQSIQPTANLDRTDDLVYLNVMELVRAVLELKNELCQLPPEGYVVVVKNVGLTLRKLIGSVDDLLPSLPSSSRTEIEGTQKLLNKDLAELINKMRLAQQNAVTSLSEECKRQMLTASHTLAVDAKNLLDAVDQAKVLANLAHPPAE
Sequence of Sphingosine 1-phosphate receptor 2 (O95136 whole entry): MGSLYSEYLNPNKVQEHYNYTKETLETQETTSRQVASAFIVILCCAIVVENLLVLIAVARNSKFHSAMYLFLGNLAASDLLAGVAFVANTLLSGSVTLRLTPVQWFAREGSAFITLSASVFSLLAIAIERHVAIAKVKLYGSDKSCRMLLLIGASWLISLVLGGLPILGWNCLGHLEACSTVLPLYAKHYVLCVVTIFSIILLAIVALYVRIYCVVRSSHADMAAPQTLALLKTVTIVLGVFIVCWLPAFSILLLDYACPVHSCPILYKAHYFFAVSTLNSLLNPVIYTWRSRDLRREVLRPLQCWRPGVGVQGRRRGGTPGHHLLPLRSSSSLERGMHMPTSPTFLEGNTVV
Sequence of Melanin-concentrating hormone receptor 1 (Q99705 whole entry): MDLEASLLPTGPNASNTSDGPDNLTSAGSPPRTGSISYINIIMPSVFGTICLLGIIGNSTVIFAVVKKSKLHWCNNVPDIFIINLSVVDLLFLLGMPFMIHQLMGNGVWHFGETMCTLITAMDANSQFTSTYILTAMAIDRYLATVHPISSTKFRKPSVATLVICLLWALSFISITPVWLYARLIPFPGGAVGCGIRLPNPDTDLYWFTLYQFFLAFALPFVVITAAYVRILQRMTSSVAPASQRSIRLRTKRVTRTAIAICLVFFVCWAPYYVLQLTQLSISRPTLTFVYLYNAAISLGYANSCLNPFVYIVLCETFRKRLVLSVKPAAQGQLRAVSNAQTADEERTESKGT

Consider `COC(=O)CC(=O)Cc1nc(N)nc(Nc2ccc(C)c(C)c2)n1`, for which, in assay [1], the EC50 is reported as > 50 µM (not active).
As to `CCOC(=O)CSc1n[nH]c(NC(=O)c2cccc(C(F)(F)F)c2)n1`, the EC50 in [2] is 12.4 µM (active). For the same compound, the IC50 in assay [3] was 0.515 µM (active). Also, the AC50 is 11.3 µM (active) in [4], 2.51 µM (inconclusive) in [5] and 5.01 µM (inconclusive) in [6].
Consider `CCC(C)(C(=O)NC1CCCC1)N(Cc1ccco1)C(=O)c1ccc2c(c1)OCO2` (centres undefined), for which the IC50 in [7] and in assay [8] was > 43.8 µM (not active) each time.
On to `O=C(Oc1ccccc1)c1c(Cl)cccc1P(=O)(O)O`, for which the IC50 in assay [9] is 6.43 µM (active).
Regarding `Cc1cc(C)c2c3c(c(-c4ccccc4)n2n1)c(=O)n(C)c(=O)n3C`, the IC50 in assay [10] and in assay [11] was > 100 µM (not active) each time.
Take `Cc1ccc(-n2nnc(-c3cc4ccccc4nc3Cl)n2)cc1`: the IC50 in assay [10] and in assay [12] was > 100 µM (not active) each time.
As for `O=C(Nc1ccc(F)cc1)c1sc(-c2ccccc2)nc1C(F)(F)F`, in assay [13], the IC50 was > 30 µM (not active).

The record behind these values is ChEMBL document CHEMBL1201862, “PubChem BioAssay data set” (2004).
